Test results: ChEMBL document CHEMBL1155606, “Stolonic acids A and B, new cytotoxic cyclic peroxides from an Indian Ocean ascidian Stolonica species” (J Nat Prod, 2000)
≈ marks a conversion by molar mass, not a printed value.

Tests used:
[1] = system: OVCAR-3; test: Cytotoxicity against human OVCAR-3 cells after 48 hrs; assay type: functional, cell-based; settings: OVCAR-3, 48 h
[2] = Cytotoxicity against human LOX cells after 48 hrs; assay type: functional, cell-based

Compound	IC50 [1] [µg/mL]	IC50 [2] [µg/mL]
CCCC/C=C\C=C/CCCCCCCC[C@@H]1CC[C@@H]([C@@H]2CC[C@@H](CC(=O)O)OO2)O1 [STOLONIC ACID B]	0.1 (≈ 0.229 µM)	0.05 (≈ 0.115 µM)
CCCC/C=C/C=C/CCCCCCCC[C@@H]1CC[C@@H]([C@@H]2CC[C@@H](CC(=O)O)OO2)O1 [STOLONIC ACID A]	0.1 (≈ 0.229 µM)	0.05 (≈ 0.115 µM)
